Assay results from ChEMBL document CHEMBL5291721, “A preclinical secondary pharmacology resource illuminates target-adverse drug reaction associations of marketed drugs” (Nat Commun, 2023).

Tests used:
[1] = target: T1, 5-hydroxytryptamine receptor 2A (Homo sapiens, UniProt P28223); assay type: functional, cell-based
[2] = target: T2, Muscarinic acetylcholine receptor M1 (Homo sapiens, UniProt P11229); assay type: functional
T2 sequence (P11229 whole entry): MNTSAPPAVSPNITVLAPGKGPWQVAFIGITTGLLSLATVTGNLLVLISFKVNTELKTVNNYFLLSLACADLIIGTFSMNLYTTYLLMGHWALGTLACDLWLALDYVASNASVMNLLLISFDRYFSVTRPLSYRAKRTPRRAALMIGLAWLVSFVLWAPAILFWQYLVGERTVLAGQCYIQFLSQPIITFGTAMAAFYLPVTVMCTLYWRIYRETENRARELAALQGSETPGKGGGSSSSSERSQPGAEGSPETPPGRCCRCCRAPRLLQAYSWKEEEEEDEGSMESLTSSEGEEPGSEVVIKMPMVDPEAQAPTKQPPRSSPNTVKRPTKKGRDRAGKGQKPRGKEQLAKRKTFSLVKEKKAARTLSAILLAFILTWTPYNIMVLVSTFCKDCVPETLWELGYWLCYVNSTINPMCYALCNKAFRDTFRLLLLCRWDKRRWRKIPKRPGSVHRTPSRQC

Mu-type opioid receptor = Mu-type opioid receptor (Homo sapiens, UniProt P35372); test: biochemical; assay type: functional
[3] = target: T1, 5-hydroxytryptamine receptor 2A; assay type: functional, cell-based; remark: listed apart in the source
Further: assay procedure not described here.

T1 sequence (P28223 whole entry): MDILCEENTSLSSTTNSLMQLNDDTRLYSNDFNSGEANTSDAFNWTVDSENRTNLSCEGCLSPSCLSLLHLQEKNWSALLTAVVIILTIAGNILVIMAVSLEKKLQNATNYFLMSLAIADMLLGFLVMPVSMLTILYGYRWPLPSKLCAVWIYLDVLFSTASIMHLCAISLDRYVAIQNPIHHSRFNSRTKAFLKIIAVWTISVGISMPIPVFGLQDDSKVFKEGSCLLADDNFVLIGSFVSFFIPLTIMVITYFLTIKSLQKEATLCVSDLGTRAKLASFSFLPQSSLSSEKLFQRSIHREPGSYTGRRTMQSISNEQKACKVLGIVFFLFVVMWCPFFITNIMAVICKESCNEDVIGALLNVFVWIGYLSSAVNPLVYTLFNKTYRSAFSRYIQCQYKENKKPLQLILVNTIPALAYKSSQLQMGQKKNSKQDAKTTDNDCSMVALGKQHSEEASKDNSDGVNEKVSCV
Mu-type opioid receptor, sequence (P35372 whole entry): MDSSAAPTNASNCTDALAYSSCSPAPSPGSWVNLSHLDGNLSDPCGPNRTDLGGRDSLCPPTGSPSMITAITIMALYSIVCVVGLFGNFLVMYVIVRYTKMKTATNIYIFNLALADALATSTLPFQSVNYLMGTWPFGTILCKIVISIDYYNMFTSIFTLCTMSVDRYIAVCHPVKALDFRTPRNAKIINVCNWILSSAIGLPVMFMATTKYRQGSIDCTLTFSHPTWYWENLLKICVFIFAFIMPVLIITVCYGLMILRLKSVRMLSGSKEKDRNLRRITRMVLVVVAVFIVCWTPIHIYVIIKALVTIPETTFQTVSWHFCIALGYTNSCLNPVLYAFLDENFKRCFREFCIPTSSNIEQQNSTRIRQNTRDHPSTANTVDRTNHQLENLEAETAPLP

## CC(=O)Nc1ccc(CC(=O)O)cc1 [ACTARIT]
[1]
  AC50: > 30 µM
[2]
  AC50: > 30 µM
Mu-type opioid receptor
  AC50: > 30 µM
[3]
  AC50: > 30 µM

## CC(C(=O)O)c1ccc2oc(-c3ccc(Cl)cc3)nc2c1 (stereo not given) [BENOXAPROFEN]
Mu-type opioid receptor
  AC50: > 30 µM

## CC=CC1=C(C(=O)O)N2C(=O)[C@@H](NC(=O)[C@H](N)c3ccc(O)cc3)[C@H]2SC1 [CEFPROZIL]
[1]
  AC50: > 30 µM
[2]
  AC50: > 30 µM
Mu-type opioid receptor
  AC50: > 30 µM
[3]
  AC50: > 30 µM

## CCC(=O)O[C@]1(C(=O)CCl)[C@@H](C)C[C@H]2[C@@H]3CCC4=CC(=O)C=C[C@]4(C)[C@@]3(F)[C@@H](O)C[C@@]21C [CLOBETASOL PROPIONATE]
Mu-type opioid receptor
  AC50: > 30 µM

## CCCCCCCN(CC)CCCC(O)c1ccc(NS(C)(=O)=O)cc1 (stereo not given) [IBUTILIDE]
[1]
  AC50: 25 µM
[2]
  AC50: > 30 µM
Mu-type opioid receptor
  AC50: > 30 µM
[3]
  AC50: > 30 µM

## CNC(=C[N+](=O)[O-])NCCSCc1csc(CN(C)C)n1 [NIZATIDINE]
Mu-type opioid receptor
  AC50: > 30 µM

## Cn1cc(C(=O)[C@@H]2CCc3nc[nH]c3C2)c2ccccc21 [RAMOSETRON]
[1]
  AC50: > 30 µM
[2]
  AC50: > 30 µM
Mu-type opioid receptor
  AC50: > 30 µM
[3]
  AC50: > 30 µM

## CC(C)C[C@H](NC(=O)[C@@H](O)[C@H](N)Cc1ccccc1)C(=O)O [UBENIMEX]
Mu-type opioid receptor
  AC50: > 30 µM
